According to article PMC11477294, “In Vitro Profiling of the Antiviral Peptide TAT-I24” (International Journal of Molecular Sciences, 2024):
Where a SMILES comes first, the peptide text is derived from it.

Columns and labels:
HEK293 cells = assay: Cell viability assay (CellTiter-Blue) in HEK293 cells; format: cell-based; conditions: 72 h at 37 °C, 3-fold dilution series starting with 20 µM, triplicate, non-linear regression (curve fit)
Experimental: HEK293 cells were seeded at a density of 2.5 × 10^3 cells/100 µL per well in a 96-well plate (Sarstedt, Germany). In addition, a serial 1:2 dilution of the cell suspension was added to each plate to generate a standard curve. On the next day, cells were treated with serial 1:3 peptide dilutions in triplicate and incubated for 72 h at 37 °C. Then, 20 µL of CellTiter-Blue® Cell Viability Assay (Promega, Mannheim, Germany) was added to each well and incubated at 37 °C for a further 1–2 h. Fluorescence was recorded using a GloMax®-Multi Detection System (Promega, Mannheim, Germany). The percentage of viable cells was calculated from the cell dilution series from each plate by linear regression analysis. The selectivity index was calculated using the following formula: SI = CC50/IC50.
Figure S1. Cell viability assay in HEK293 cells in the presence of peptides. Cells were incubated with 3 -fold dilution series of peptides starting with a concentration of 20 µM for 72 hours and measured using the Cell Titer Blue assay. Curve fitting of % viable cells of untrea ted control was performed using Graph Pad Prism softwar e.
(1 picture or pasted object on this page, not shown here)

[1] = test system: human red blood cells (RBCs); assay: Hemolysis assay with red blood cells; format: cell-based; conditions: 1 h at 37 °C
Experimental: Blood from healthy volunteers was collected by venipuncture (Greiner Bio-One, Kremsmünster, Austria) into K2E K2EDTA VacuetteTM tubes (Greiner Bio-One, Kremsmünster, Austria) with 4 mL blood. The assay for hemolysis was adapted from Sæbo et al.. Blood was centrifuged at 1000× g for 10 min, and plasma was kept for further use. Red blood cells were then resuspended in 10 mL PBS and centrifuged again at 1000× g for a total of three times. Cells were then counted using a hemocytometer and seeded at a cell number of 1 × 10^7 cells/100 µL PBS per well in conical 96-well plates (ThermoFisher, Darmstadt, Germany). Next, 1:2 peptide dilutions starting from 40 µM either in PBS or 10% donor serum were prepared, and 100 µL was added to 100 µL of RBC. Plates were then incubated for one hour at 37 °C. As the positive control, three wells with 100 µL RBCs were treated with 100 µL PBS + 0.5% Triton X-100. After incubation, plates were centrifuged at 1000× g for 5 min and supernatants were transferred to flat 96-well plates. Optical density (OD) was determined at 450 nm using a GloMax®-Multi Detection System (Promega, Mannheim, Germany). Images from RBCs from light microscopy and centrifuged plates were taken using an iPhone 12 mini.

[2] = test system: MCMV m123/ie-1 transcript; assay: m123/ie-1 transcript qPCR in MCMV-infected NIH/3T3 cells; format: cell-based, mouse cytomegalovirus; conditions: MCMV MOI 1, two hours post-infection, duplicate treatments
Experimental: NIH/3T3 cells were seeded at a density of 2 × 10^4 cells/250 µL per well in a 48-well plate and allowed to attach overnight at 37 °C. On the next day, cells were treated with peptides at the indicated concentrations and infected with MCMV at an MOI of 1 with the aid of centrifugal enhancement, twice at 800× g for 15 min. Cells were then returned to 37 °C for two hours before cell lysis for further processing. RNA isolation, DNase digestion, cDNA reaction and qPCR were performed, as described previously.

[3] = test system: MCMV pM123/IE1 protein expression; assay: pM123/IE1 immunofluorescence in MCMV-infected NIH/3T3 cells; format: cell-based, mouse cytomegalovirus; conditions: MCMV MOI 1, 6 h post-infection
Experimental: NIH/3T3 cells were seeded at a density of 2 × 10^4 cells/250 µL per well in ibiTreat 8-well chambers (ibidi, Gräfelfing, Germany) and allowed to attach overnight at 37 °C. On the next day, cells were treated with peptides and infected with MCMV at an MOI of 1 with the aid of centrifugal enhancement, twice at 800× g for 15 min. After 6 h of incubation at 37 °C, the supernatants were removed and cells were fixed with 5% formaldehyde for 1 h at room temperature, followed by permeabilization with 0.5% Triton X-100 (Sigma Aldrich, Schnelldorf, Germany) in PBS for 10 min at room temperature. Cells were then incubated with 3% bovine serum albumin (BSA; Sigma Aldrich, Schnelldorf, Germany) in PBS for one hour. After that, anti-m123/IE-1 antibody (clone IE1.01; Center for Proteomics, Rijeka, Croatia) was added at a 1:400 dilution in PBS + 1% BSA and slides were incubated overnight at 4 °C. On the next day, wells were washed twice with PBS. […]

cells = conditions: not associated with cell toxicity; cited from earlier work

CC(C)C[C@H](NC(=O)[C@H](CS)NC(=O)[C@H](CCC(N)=O)NC(=O)[C@@H]1CCCN1C(=O)[C@@H]1CCCN1C(=O)[C@H](CCCNC(=N)N)NC(=O)[C@H](CCCNC(=N)N)NC(=O)[C@H](CCCNC(=N)N)NC(=O)[C@H](CCC(N)=O)NC(=O)[C@H](CCCNC(=N)N)NC(=O)[C@H](CCCNC(=N)N)NC(=O)[C@H](CCCCN)NC(=O)[C@H](CCCCN)NC(=O)[C@H](CCCNC(=N)N)NC(=O)CN)C(=O)N[C@@H](C)C(=O)N[C@@H](Cc1ccccc1)C(=O)N[C@@H](Cc1ccc(O)cc1)C(=O)N[C@@H](C)C(=O)N[C@@H](CS)C(=O)N[C@@H](Cc1ccccc1)C(=O)N[C@@H](CS)C(=O)O [TAT-I24] (H-GRKKRRQRRRPPQCLAFYACFC-OH)
HEK293 CC50 (HEK293 cells): 124 µM | hemolysis of human RBCs ([1]; peptide dilutions in PBS or PBS + 10% donor serum, concentrations < 20 µM (1:2 dilutions), OD 450 nm of supernatants, n = 6): neither induce hemolysis | swelling of RBCs (pellet size after centrifugation) ([1]; peptide dilutions prepared in PBS, up to 20 µM): Swelling of red blood cells | m123/ie-1 transcript levels relative to infected cells without peptides ([2]; 1 µM peptide): significantly reduced | m123/ie-1 transcript levels relative to infected cells without peptides ([2]; 10 µM peptide): significantly reduced | number of pM123/IE1-positive cells ([3]; 1 µM peptide): clearly reduced | number of pM123/IE1-positive cells ([3]; 10 µM peptide): clearly reduced | concentration with morphological changes such as cell aggregation (cells): > 10 µM
